Measured values as given in patent US20100092443A1, “NOVEL COMBINATIONS OF NITROGENATED HETEROCYCLIC ANTIBACTERIAL COMPOUNDS WITH OTHER ANTIBACTERIAL COMPOUNDS AND THE USE OF SAME AS DRUGS” (priority 2008, published 2010).
Structures can show the parent of a compound that is named as a salt.

Assays:
Type in all cases: cell-based
Pseudomonas aeruginosa = experiment: MIC, dilutions in liquid medium, alone and combined with NXL105
Procedure: (§1) In vitro activity, method of dilutions in liquid medium:
A series of test 96-well microtiter plates are prepared in which the same quantity of sterile nutritive medium is distributed. Increasing quantities of the compound to be studied, namely the antibacterial compound alone and the inventive combination with the compound of formula (I) of example 1, are distributed in each plate in the respective proportions 2:1 and 4:1, and then each plate is inoculated with a bacterial strain of Pseudomonas aeruginosa. After 24 h of incubation in a 37° C. oven, growth inhibition is evaluated by transillumination, which makes it possible to determine the minimum inhibitory concentrations (MICS) expressed in μg/ml.

K. oxytoca = experiment: as above
E. coli = experiment: microbe, parasite or virus in culture
Procedure: as §1
(§2) A series of test 96-well microtiter plates are prepared in which the same quantity of sterile nutritive medium is distributed. […] After 24 h of incubation in a 37° C. oven, growth inhibition is evaluated by transillumination, which makes it possible to determine the minimum inhibitory concentrations (MICS) expressed in μg/ml.

C. freundii = experiment: MIC, dilutions in liquid medium, alone and combined with NXL105
E. aerogenes = experiment: as above; settings: E. aerogenes EAR2; Case-R + FEP-R
E. cloacae = experiment: as above
Procedure: as §1, §2

K. pneumoniae = experiment: as above
Procedure: as §1, §2

SMILES: Cn1ncc2c1[C@@H](CN)N1C[C@H]2N(OS(=O)(=O)O)C1=O (relative stereo) [NXL105, Sodium and Trifluoroacetate Salts of trans 8-(aminomethyl)-4,8-dihydro-1-methyl-5-(sulphooxy)-4,7-methano-7H-pyrazolo[3,4-e][1,3]diazepin-6(5H)-one]
- MIC (Pseudomonas aeruginosa; P. aeruginosa 391HG2): 1.000 µg/mL
- MIC (Pseudomonas aeruginosa; P. aeruginosa 391HG21): 0.500 µg/mL
- MIC (Pseudomonas aeruginosa; P. aeruginosa 391HG38): 32.000 µg/mL
- MIC (Pseudomonas aeruginosa; P. aeruginosa 391HG39): 4.000 µg/mL
- MIC (Pseudomonas aeruginosa; P. aeruginosa 391HG58): 1.000 µg/mL
- MIC (Pseudomonas aeruginosa; P. aeruginosa 391HG118): 0.125 µg/mL
- MIC (Pseudomonas aeruginosa; P. aeruginosa 391HG123): >32 µg/mL
- MIC (Pseudomonas aeruginosa; P. aeruginosa 391HG158): 32.000 µg/mL
- MIC (Pseudomonas aeruginosa; P. aeruginosa 391HG271): 32.000 µg/mL
- MIC (Pseudomonas aeruginosa; P. aeruginosa 391HG329): 2.000 µg/mL
- MIC (Pseudomonas aeruginosa; P. aeruginosa 391K767): 1.000 µg/mL
- MIC (Pseudomonas aeruginosa; P. aeruginosa 391K1455): 2.000 µg/mL
- MIC (Pseudomonas aeruginosa; P. aeruginosa 391K1523): 2.000 µg/mL
- MIC (Pseudomonas aeruginosa; P. aeruginosa 391K1525): 4.000 µg/mL
- MIC (Pseudomonas aeruginosa; P. aeruginosa 391K1536): 2.000 µg/mL
- MIC (Pseudomonas aeruginosa; P. aeruginosa 391K2376): 2.000 µg/mL
- MIC (Pseudomonas aeruginosa; P. aeruginosa 391K2379): 4.000 µg/mL
- MIC (Pseudomonas aeruginosa; P. aeruginosa 391K2415): 2.000 µg/mL
- MIC (Pseudomonas aeruginosa; P. aeruginosa 391KB9): 0.250 µg/mL
- MIC (Pseudomonas aeruginosa; P. aeruginosa 391KB14): 1.000 µg/mL
- MIC (Pseudomonas aeruginosa; P. aeruginosa 391KB21): 2.000 µg/mL
- MIC (Pseudomonas aeruginosa; P. aeruginosa 391KB33): 0.500 µg/mL
- MIC (Pseudomonas aeruginosa; P. aeruginosa 391KB38): 1.000 µg/mL
- MIC (Pseudomonas aeruginosa; P. aeruginosa 391KB62): 4.000 µg/mL
- MIC (Pseudomonas aeruginosa; P. aeruginosa 391KB68): 0.500 µg/mL
- MIC (Pseudomonas aeruginosa; P. aeruginosa 391KB90): 8.000 µg/mL
- MIC (Pseudomonas aeruginosa; P. aeruginosa 391KB91): 0.500 µg/mL
- MIC (Pseudomonas aeruginosa; P. aeruginosa 391KB99): 0.500 µg/mL
- MIC (Pseudomonas aeruginosa; P. aeruginosa 391KB103): 0.500 µg/mL
- MIC (Pseudomonas aeruginosa; P. aeruginosa 391KB105): 1.000 µg/mL
- MIC (Pseudomonas aeruginosa; P. aeruginosa 391KB106): 2.000 µg/mL
- MIC (Pseudomonas aeruginosa; P. aeruginosa 391KB107): 1.000 µg/mL
- MIC (Pseudomonas aeruginosa; P. aeruginosa 391KB114): 4.000 µg/mL
- MIC (Pseudomonas aeruginosa; P. aeruginosa 391KB127): 0.500 µg/mL
- MIC (Pseudomonas aeruginosa; P. aeruginosa 391KB135): 1.000 µg/mL
- MIC (Pseudomonas aeruginosa; P. aeruginosa 391KB136): 0.500 µg/mL
- MIC (Pseudomonas aeruginosa; P. aeruginosa 391KB137): 0.500 µg/mL
- MIC (Pseudomonas aeruginosa; P. aeruginosa 391KB138): 0.500 µg/mL
- MIC (Pseudomonas aeruginosa; P. aeruginosa 391KB139): 2.000 µg/mL
- MIC (Pseudomonas aeruginosa; P. aeruginosa 391KB140): 2.000 µg/mL
- MIC (Pseudomonas aeruginosa; P. aeruginosa 391KB141): 4.000 µg/mL
- MIC (Pseudomonas aeruginosa; P. aeruginosa 391KB142): 1.000 µg/mL
- MIC (Pseudomonas aeruginosa; P. aeruginosa 391KB143): 0.500 µg/mL
- MIC (Pseudomonas aeruginosa; P. aeruginosa 391KB144): 16.000 µg/mL
- MIC (Pseudomonas aeruginosa; P. aeruginosa 391QBR2): >32 µg/mL
- MIC (Pseudomonas aeruginosa; P. aeruginosa 391QBR3): 2.000 µg/mL
- MIC (Pseudomonas aeruginosa; P. aeruginosa 391QBR4): 2.000 µg/mL
- MIC (Pseudomonas aeruginosa; P. aeruginosa 391QBR5): 1.000 µg/mL
- MIC (Pseudomonas aeruginosa; P. aeruginosa 391QBR7): 2.000 µg/mL
- MIC (Pseudomonas aeruginosa; P. aeruginosa 391QBR8): 2.000 µg/mL
- MIC (Pseudomonas aeruginosa; P. aeruginosa 391QBR9): 2.000 µg/mL
- MIC (Pseudomonas aeruginosa; P. aeruginosa 391QBR10): 4.000 µg/mL
- MIC (Pseudomonas aeruginosa; P. aeruginosa ATCC 27853): 0.060 µg/mL
- MIC (Pseudomonas aeruginosa; P. aeruginosa C3719): >32 µg/mL
- MIC (Pseudomonas aeruginosa; P. aeruginosa PA2192): 0.125 µg/mL
- MIC (K. oxytoca; K. oxytoca 1431, TEM-129): 32 µg/mL
- MIC (K. oxytoca; K. oxytoca 16944, OXY-2, TEM-1): >32 µg/mL
- MIC (E. coli; E. coli 2138, KPC-2 + TEM-1): >32 µg/mL
- MIC (E. coli; E. coli (no alias), CTX-M-15 + TEM-1 + OXA-1): >32 µg/mL
- MIC (E. coli; E. coli (no alias), Cephalosporinase): >32 µg/mL
- MIC (E. coli; E. coli (no alias), SHV-4): >32 µg/mL
- MIC (E. coli; E. coli (no alias), TEM-3): >32 µg/mL
- MIC (E. coli; E. coli IND, VEB-1 + CMY-2): 16 µg/mL
- MIC (E. coli; E. coli TN06, CTX-M-2 + TEM-1): 32 µg/mL
- MIC (E. coli; E. coli TN13, CTX-M-14 + CMY-2 + TEM-1): 32 µg/mL
- MIC (E. coli; E. coli Tunisie clone E4, CTX-M-16 + TEM-1): >32 µg/mL
- MIC (C. freundii; C. freundii (no alias), AmpC + TEM-1): 16 µg/mL
- MIC (C. freundii; C. freundii (no alias, table row r121), AmpC): 16 µg/mL
- MIC (C. freundii; C. freundii (no alias, table row r122), AmpC): 32 µg/mL
- MIC (C. freundii; C. freundii (no alias, table row r123), AmpC): >32 µg/mL
- MIC (C. freundii; C. freundii (no alias, table row r125), AmpC): 32 µg/mL
- MIC (E. aerogenes): >32 µg/mL
- MIC (E. cloacae; E. cloacae 7506, KPC-2 + TEM-1 + KLUC-2): 32 µg/mL
- MIC (E. cloacae; E. cloacae (no alias), AmpC): 32 µg/mL
- MIC (E. cloacae; E. cloacae, AmpC): >32 µg/mL
- MIC (K. pneumoniae; K. pneumoniae 26, SHV-5): 32 µg/mL
- MIC (K. pneumoniae; K. pneumoniae 60, SHV-2 + TEM-2 + PER): 32 µg/mL
- MIC (K. pneumoniae; K. pneumoniae 157, SHV-5 + TEM-26): >32 µg/mL
- MIC (K. pneumoniae; K. pneumoniae 181, SHV-5 + TEM-10): >32 µg/mL
- MIC (K. pneumoniae; K. pneumoniae 236, SHV-5 + TEM-10): >32 µg/mL
- MIC (K. pneumoniae; K. pneumoniae 238, SHV-2 + TEM-12 + CTX-M-2): >32 µg/mL
- MIC (K. pneumoniae; K. pneumoniae 243, SHV-5 + TEM-63): >32 µg/mL
- MIC (K. pneumoniae; K. pneumoniae 253, SHV-2 + TEM-12 + CTX-M-2): >32 µg/mL
- MIC (K. pneumoniae; K. pneumoniae 427, SHV-1 + TEM-1B + CTX-M-3): >32 µg/mL
- MIC (K. pneumoniae; K. pneumoniae 441, SHV-1 + TEM-2 + PER): >32 µg/mL
- MIC (K. pneumoniae; K. pneumoniae 444, SHV-5 + TEM-2 + PER): >32 µg/mL
- MIC (K. pneumoniae; K. pneumoniae 449, SHV-1 + TEM-2 + PER): 32 µg/mL
- MIC (K. pneumoniae; K. pneumoniae 465, TEM-1B + CTX-M-2): >32 µg/mL
- MIC (K. pneumoniae; K. pneumoniae 1734, FOX-3 + TEM-1): >32 µg/mL
- MIC (K. pneumoniae; K. pneumoniae 9701, CMY-4 + TEM-1): >32 µg/mL
- MIC (K. pneumoniae; K. pneumoniae ATCC 700603, SHV-18): >32 µg/mL
- MIC (K. pneumoniae; K. pneumoniae CL5761, KPC-3): >32 µg/mL
- MIC (K. pneumoniae; K. pneumoniae CL5762, KPC-3): >32 µg/mL
- MIC (K. pneumoniae; K. pneumoniae CL5763, KPC-3): >32 µg/mL
- MIC (K. pneumoniae; K. pneumoniae KOL, MOX-2 + SHV-5 + TEM-1): >32 µg/mL
- MIC (K. pneumoniae; K. pneumoniae KP04, CTX-M-14): >32 µg/mL
- MIC (K. pneumoniae; K. pneumoniae Patient 1BHR, VIM-4 + CTX-M-15 = CMY-4 + TEM-1): 16 µg/mL
- MIC (K. pneumoniae; K. pneumoniae Patient F, VIM-1 + SHV-5): >32 µg/mL
- MIC (K. pneumoniae; K. pneumoniae SLK54, ACC-1 + TEM-1): >32 µg/mL
- MIC (K. pneumoniae; K. pneumoniae TN58467, DHA-1 + SHV-2a + TEM-1): >32 µg/mL
- MIC (K. pneumoniae; K. pneumoniae Tunisie clone K1, CTX-M-16 + OXA-1): >32 µg/mL
- MIC (K. pneumoniae; K. pneumoniae Tunisie clone K4, CTX-M-15 + TEM-1 + OXA-1): 16 µg/mL
- MIC (K. pneumoniae; K. pneumoniae VA8, KPC-3): >32 µg/mL
- MIC (K. pneumoniae; K. pneumoniae VAKP, KPC-2): >32 µg/mL
- MIC (K. pneumoniae; K. pneumoniae YC, KPC-2): >32 µg/mL
